Square brackets hold non-standard residues; d marks the D form. Peptide text beside a SMILES is read from it. pY = N[C@@H](Cc1ccc(OP(=O)(O)O)cc1)C(=O)O; pS = N[C@@H](COP(=O)(O)O)C(=O)O

This experiment has as its target T1, His6STAT3^127-715 (Homo sapiens, UniProt P40763).
T1 construct: made in house; host or cells: E. coli BL21 (DE3)
Put plainly: Biolayer interferometry (BLI): SteE^138-148 phosphopeptides binding to recombinant STAT3. The note with it: Octet R8, 25 °C, biotinylated peptide immobilised on streptavidin sensors, pH 7.7, 0.005% Tween-20, steady-state one-site fit, read-out: Kd (affinity of SteE^138-148 phosphorylated peptide for STAT3). Here is the method:
Recombinant Salmonella Typhimurium His6-SteE^ΔN20 and human His6-STAT3^127-715 were ligated into pET49 vector using Gibson Assembly; the N-terminal His6-tag is cleavable with HRV 3 C protease.
Binding affinities of His6-STAT3^127-715 to SteE peptides were derived from […] measured on an Octet R8 system (Sartorius) at 25 °C. Biotinylated SteE peptides were synthesised by the Chemical Biology Science Technology Platform at the Francis Crick Institute and dissolved from lyophilised stock in the respective protein buffer to which 0.005% Tween-20 was added (BLI buffer). Appropriate serial dilutions of His6-STAT3^127-715 were prepared in 25 mM HEPES, 200 mM NaCl, 10 mM MgCl2, 0.5 mM TCEP at pH 7.7. SteE peptides were immobilised on Streptavidin (SA) sensors at 0.2 µg/mL by incubation until the linear signal increase started to plateau (up to 160 s), followed by a sensor wash in BLI buffer for 50 s to stabilise the baseline. Association was recorded by incubating the sensors with His6-STAT3^127-715 for 300 s. Subsequent dissociation in BLI buffer was followed for up to 300 s. Data were acquired using Octet BLI Discovery software 12.2.2.20 and processed with Octet BLI Analysis software 12.2.2.4 by subtraction of reference wells without protein and y alignment of the data to the baseline. […]
(In general: In BLI a coated tip is dipped into the sample, and binding shifts an interference pattern.)

T1 sequence (P40763 127-715): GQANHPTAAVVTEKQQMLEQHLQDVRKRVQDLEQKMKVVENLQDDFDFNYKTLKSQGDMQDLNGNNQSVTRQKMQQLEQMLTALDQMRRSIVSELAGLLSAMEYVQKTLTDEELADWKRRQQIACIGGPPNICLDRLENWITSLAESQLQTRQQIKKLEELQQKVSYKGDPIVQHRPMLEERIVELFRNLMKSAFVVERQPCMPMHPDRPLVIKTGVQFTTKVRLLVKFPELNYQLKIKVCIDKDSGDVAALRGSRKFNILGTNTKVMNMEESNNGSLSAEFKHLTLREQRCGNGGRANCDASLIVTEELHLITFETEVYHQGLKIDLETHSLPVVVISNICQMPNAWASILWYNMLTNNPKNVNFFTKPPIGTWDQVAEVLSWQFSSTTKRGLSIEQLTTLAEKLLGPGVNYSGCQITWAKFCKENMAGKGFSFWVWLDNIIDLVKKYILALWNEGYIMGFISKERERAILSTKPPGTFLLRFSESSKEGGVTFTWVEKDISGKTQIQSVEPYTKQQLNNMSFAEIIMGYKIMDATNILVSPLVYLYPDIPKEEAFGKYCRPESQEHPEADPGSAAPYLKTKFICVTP

Regarding `CC[C@H](C)[C@H](NC(=O)[C@H](Cc1ccc(OP(=O)(O)O)cc1)NC(=O)CNC(=O)[C@H](COP(=O)(O)O)NC(=O)[C@@H]1CCCN1C(=O)[C@@H]1CCCN1C(=O)[C@@H](N)CC(N)=O)C(=O)N[C@@H](C)C(=O)N[C@@H](CCC(N)=O)C(=O)N[C@@H](Cc1ccc(O)cc1)C(=O)N[C@@H](CCCNC(=N)N)C(=O)O` [SteE_pS141pY143] (H-NPP[pS]G[pY]IAQYR-OH), the Kd was found to be 1400 ± 80 nM.

The Kd is the free concentration of one partner at which half of the binding sites on the other are occupied at equilibrium, for simple one-to-one binding.

Source of the values: paper PMC12287357, “Bacterial effectors mediate kinase reprogramming through mimicry of conserved eukaryotic motifs” (EMBO Reports, 2025).
